Experiments:
[1] = test system: IPOSS (Morningglory Spp.); assay: Postemergence herbicidal evaluation; assay type: in vivo, Ipomoea Spp.
How it was run: (§1)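 Seedlings grown about two weeks were sprayed at 40 psi with compound dispersed in 50/50 acetone/water plus 0.5% TWEEN 20, at about 0.0156 to 0.500 kg/ha. Plants were kept in the greenhouse and scored 4–5 weeks later on a 0–9 visual scale against untreated controls.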

[2] = test system: IPOSS (Morningglory Spp.); assay: Preemergence herbicidal evaluation; assay type: in vivo, Ipomoea Spp.; settings: rated 4-5 weeks after treatment
How it was run: (§2)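 Scores (0–9) reflect visual comparison with control plants for stand, vigor, malformation, size and chlorosis. Compound was applied to the soil after sowing, before emergence, as an aqueous acetone spray (about 0.0156–0.500 kg/ha), and cups were kept in a greenhouse for 4–5 weeks.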

CYPIR (Rice Flatsedge) = assay: Postemergence weed control under flooded paddy conditions; assay type: in vivo, Cyperus iria; settings: postemergence weeds
How it was run: (§3)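 With weeds 3 to 5 cm tall and rice at the 1.5 to 2.5 leaf stage, containers were flooded and water held 1.5 to 3 cm above soil. Compounds in 50/50 v/v aqueous/acetone went into the flood water at about 0.0313 to 0.500 kg/ha a.i. Effects were visually rated 0–9 against controls after three to four weeks in the greenhouse.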

GLXMA (Soybean) [3] = assay: Postemergence herbicidal evaluation; assay type: in vivo, Glycine max
How it was run: as §1

MOOVA (Monochoria) = assay: Postemergence weed control under flooded paddy conditions; assay type: in vivo, Monochoria vaginalis; settings: postemergence weeds
How it was run: as §3

GLXMA (Soybean) [4] = assay: Preemergence herbicidal evaluation; assay type: in vivo, Glycine max; settings: rated 4-5 weeks after treatment
How it was run: as §2

[5] = test system: ECHORC (Watergrass (Calif.)); assay: Postemergence weed control under flooded paddy conditions; assay type: in vivo, Echinochloa oryzoides; settings: postemergence weeds
How it was run: as §3

[6] = rate 0.0313 kg/ha, 3-4 weeks after treatment
[7] = rate 0.0625 kg/ha, 3-4 weeks after treatment
[8] = rate 0.1250 kg/ha, 3-4 weeks after treatment
[9] = rate 0.2500 kg/ha, 3-4 weeks after treatment
[10] = rate 0.5000 kg/ha, 3-4 weeks after treatment
[11] = Rate 0.0313 kg/ha, rated 3 to 4 weeks after treatment
[12] = Rate 0.0625 kg/ha, rated 3 to 4 weeks after treatment
[13] = Rate 0.1250 kg/ha, rated 3 to 4 weeks after treatment
[14] = Rate 0.2500 kg/ha, rated 3 to 4 weeks after treatment

CC1SC(=Nc2cc(N3C(=O)C4=C(CCCC4)C3=O)c(F)cc2Cl)N(C)C1=O (stereo not shown) [Compound 4]
IPOSS herbicidal rating ([1]; rate 0.0313 kg/ha): 0.0
IPOSS herbicidal rating ([1]; rate 0.0625 kg/ha): 0.0
IPOSS herbicidal rating ([1]; rate 0.1250 kg/ha): 0.0
IPOSS herbicidal rating ([1]; rate 0.2500 kg/ha): 1.0
IPOSS herbicidal rating ([1]; rate 0.5000 kg/ha): 4.0
IPOSS preemergence herbicidal rating ([2]; rate 0.1250 kg/ha): 0.0
IPOSS preemergence herbicidal rating ([2]; rate 0.2500 kg/ha): 2.0
IPOSS preemergence herbicidal rating ([2]; rate 0.5000 kg/ha): 9.0
Herbicidal rating CYPIR (CYPIR (Rice Flatsedge); [6]): 0.0
Herbicidal rating CYPIR (CYPIR (Rice Flatsedge); [7]): 2.0
Herbicidal rating CYPIR (CYPIR (Rice Flatsedge); [8]): 4.5
Herbicidal rating CYPIR (CYPIR (Rice Flatsedge); [9]): 6.5
Herbicidal rating CYPIR (CYPIR (Rice Flatsedge); [10]): 9.0
GLXMA herbicidal rating (GLXMA (Soybean) [3]; rate 0.0313 kg/ha): 2.0
GLXMA herbicidal rating (GLXMA (Soybean) [3]; rate 0.0625 kg/ha): 2.5
GLXMA herbicidal rating (GLXMA (Soybean) [3]; rate 0.1250 kg/ha): 4.5
GLXMA herbicidal rating (GLXMA (Soybean) [3]; rate 0.2500 kg/ha): 4.5
GLXMA herbicidal rating (GLXMA (Soybean) [3]; rate 0.5000 kg/ha): 4.5
Herbicidal rating MOOVA (MOOVA (Monochoria); [6]): 1.0
Herbicidal rating MOOVA (MOOVA (Monochoria); [7]): 3.5
Herbicidal rating MOOVA (MOOVA (Monochoria); [8]): 4.0
Herbicidal rating MOOVA (MOOVA (Monochoria); [9]): 5.5
Herbicidal rating MOOVA (MOOVA (Monochoria); [10]): 8.0
GLXMA preemergence herbicidal rating (GLXMA (Soybean) [4]; rate 0.1250 kg/ha): 0.0
GLXMA preemergence herbicidal rating (GLXMA (Soybean) [4]; rate 0.2500 kg/ha): 2.0
GLXMA preemergence herbicidal rating (GLXMA (Soybean) [4]; rate 0.5000 kg/ha): 4.0
Herbicidal rating ECHORC [5, 6]: 1.0
Herbicidal rating ECHORC [5, 7]: 2.0
Herbicidal rating ECHORC [5, 8]: 3.5
Herbicidal rating ECHORC [5, 9]: 4.0
Herbicidal rating ECHORC [5, 10]: 5.0

CCOC(=O)CN1C(=O)C(Cc2ccccc2OC(C)C(=O)O)S/C1=N/c1cc(-n2c(=O)cc(C(F)(F)F)n(C)c2=O)c(F)cc1Cl (stereo not shown) [Compound 114, 5-[o-(1-Carboxyethoxy)benzyl]-2-{{2-chloro-5-[3,6-dihydro-3-methyl-2,6-dioxo-4-(trifluoromethyl)-1(2H)-pyrimidinyl]-4-fluorophenyl}imino}-4-oxo-3-thiazolidineacetic acid, 3-ethyl ester]
Herbicidal rating CYPIR (CYPIR (Rice Flatsedge); [11]): 0.0
Herbicidal rating CYPIR (CYPIR (Rice Flatsedge); [12]): 0.0
Herbicidal rating CYPIR (CYPIR (Rice Flatsedge); [13]): 4.0
Herbicidal rating CYPIR (CYPIR (Rice Flatsedge); [14]): 7.0
Herbicidal rating MOOVA (MOOVA (Monochoria); [11]): 6.0
Herbicidal rating MOOVA (MOOVA (Monochoria); [12]): 8.0
Herbicidal rating MOOVA (MOOVA (Monochoria); [13]): 9.0
Herbicidal rating MOOVA (MOOVA (Monochoria); [14]): 9.0
Herbicidal rating ECHORC [5, 11]: 0.0
Herbicidal rating ECHORC [5, 12]: 0.0
Herbicidal rating ECHORC [5, 13]: 0.0
Herbicidal rating ECHORC [5, 14]: 0.0

Source: US20020137929A1, “1 - (3-heterocyclylphenyl) isothiourea, -isourea, -guanidine and -amidine herbicidal agents” (Intellectual Property Department, BASF Aktiengesellschaft, priority 1998, published 2002)
